The results in this text go back to US20120277209A1, “PYRAZINE COMPOUNDS AS PHOSPHODIESTERASE 10 INHIBITORS” (Amgen Inc., priority 2009, published 2012).

Where two headings read alike, the source gives them in different places. A value given as a limit tells only on which side of the number the result lay.

A word on the IC50: it is the concentration that gives 50% inhibition.

This assay deals with PDE10 (UniProt Q9Y233). Description: PDE10 enzyme inhibition, IMAP TR-FRET assay (MPDE10A7 Enzyme Activity and Inhibition). It counts as biochemical. An outline of the steps:
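PDE10A enzyme or tissue homogenate preincubated with compounds 30 min at room temperature, then fluorescein-labelled cAMP or cGMP added for 60 min. IMAP binding reagent stop, TR-FRET read. Values are mean IC50s, grouped into five potency classes.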

Setting [1] is: PDE10 enzyme inhibition, average IC50 data for each compound, read-out: Average IC50.
[2] abbreviates: IC50 class against PDE10, read-out: IC50.
The mark [3] stands for this setting: PDE10 enzyme inhibition, chiral compounds separated from racemic mixtures, read-out: IC50.

Turning to `COCC(=O)N1CCC(c2nccnc2Oc2ccc(C(=O)c3nc4ccccc4n3C)cc2)CC1` [drawing 982], the IC50 under setting [1] was 0.521 nM. Turning to `Fc1cc(Oc2cnccn2)ccc1Nc1nc2ccccc2s1` [drawing 878], the IC50 under setting [1] was 777 nM. For the compound `COc1ncccc1-c1nccnc1Oc1ccc(C(=O)c2nc3ccccc3n2CCF)cc1` [drawing 994], under setting [1], the 50% inhibitory concentration (IC50) came out at 5.83 nM.

For the compound `CN1CCC(c2nccnc2Oc2ccc(C(=O)c3nc4ccccc4[nH]3)cc2)=CC1=O` [Example 252, 4-(3-(4-(1H-benzo[d]imidazole-2-carbonyl)phenoxy)pyrazin-2-yl)-1-methyl-5,6-dihydropyridin-2(1H)-one], the half-inhibitory concentration (IC50) under setting [2] was < 25 nM. As to `O=C(c1ccc(Oc2nccnc2N2CCOCC2)cc1)c1nc2ncccc2[nH]1`, the 50% inhibitory concentration (IC50) under setting [1] stood at 11.6 nM.

On to `O=C(c1ccc(Oc2nccnc2C2(O)CCOCC2)cc1)c1nc2ccccc2[nH]1` [drawing 908], for which the IC50 under setting [1] amounted to 2.16 nM. As for `O=C(c1ccc(Oc2nccnc2-c2ccncc2)cc1)c1nc2ccccc2[nH]1` [drawing 755], the half-inhibitory concentration (IC50) under setting [1] turned out to be 7.5 nM. Same read-out and setting: under `CN1CCC(c2nccnc2Oc2ccc(Nc3nc4ccccc4s3)cc2)CC1` [drawing 966] stands 5.92 nM; under `COC[C@@H]1CCCN1c1nccnc1Oc1ccc(Nc2nc3ccccc3s2)cc1` [drawing 719], 9.44 nM.

Take `CC(C)(C)OC(=O)N1CC=C(c2nccnc2Oc2ccc(Nc3nc4ccccc4s3)c(F)c2)CC1` [Example 159, tert-butyl 4-(3-(4-(benzo[d]thiazol-2-ylamino)-3-fluorophenoxy)pyrazin-2-yl)-5,6-dihydropyridine-1(2H)-carboxylate]: under setting [2], the IC50 was < 25 nM. For `CCOC(=O)[C@@H]1CCCN(c2nccnc2Oc2ccc(C(=O)c3nc4ccccc4[nH]3)cc2)C1` [Example 263, (R)-ethyl 1-(3-(4-(1H-benzo[d]imidazole-2-carbonyl)phenoxy)pyrazin-2-yl)piperidine-3-carboxylate], the IC50 under setting [3] was < 25 nM. As to `c1ccc2sc(Nc3ccc(Oc4nccnc4N4CCCC4)cc3)nc2c1` [Example 68, N-(4-(3-(pyrrolidin-1-yl)pyrazin-2-yloxy)phenyl)benzo[d]thiazol-2-amine], the IC50 under setting [2] is 25 to 100 nM. On to `O=C(c1ccc(Oc2nccnc2-c2ccnc3ccccc23)cc1)c1nc2ccccc2[nH]1` [Example 129, (1H-benzo[d]imidazol-2-yl)(4-(3-(quinolin-4-yl)pyrazin-2-yloxy)phenyl)methanone], for which the IC50 under setting [2] fell in the range of 25 to 100 nM.

On to `O[C@H]1CCC[C@@H](c2nccnc2Oc2ccc(Nc3nc4ccccc4s3)cc2)C1` [Example 271, (1S,3R)-3-(3-(4-(benzo[d]thiazol-2-ylamino)phenoxy)pyrazin-2-yl)cyclohexanol], for which, under setting [3], the IC50 is < 25 nM. Regarding `CN1CCC(c2nccnc2Oc2ccc(C(=O)c3nc4ccccc4[nH]3)cc2)CC1=O` (stereo not shown) [Example 253, 4-(3-(4-(1H-benzo[d]imidazole-2-carbonyl)phenoxy)pyrazin-2-yl)-1-methylpiperidin-2-one], the 50% inhibitory concentration (IC50) under setting [2] was < 25 nM. Consider `c1ccc2sc(Nc3ccc(Oc4nccnc4-c4ccc(N5CCOCC5)nc4)cc3)nc2c1` [Example 138, N-(4-(3-(6-morpholinopyridin-3-yl)pyrazin-2-yloxy)phenyl)benzo[d]thiazol-2-amine], for which the concentration for half-maximal inhibition (IC50) under setting [2] was 100 to 250 nM. `C[C@H](F)C(=O)N1CCC(c2nccnc2Oc2ccc(C(=O)c3nc4ccccc4[nH]3)cc2)CC1` [Example 278, (S)-1-(4-(3-(4-(1H-benzo[d]imidazole-2-carbonyl)phenoxy)pyrazin-2-yl)piperidin-1-yl)-2-fluoropropan-1-one]: under setting [3], the half-inhibitory concentration (IC50) is < 25 nM. Consider `COc1cc(-c2nccnc2Oc2ccc(C(=O)c3nc4ccccc4[nH]3)cc2)ccn1` [drawing 883], for which the IC50 under setting [1] came out at 7.56 nM. Same read-out and setting: under `CC(=O)N1CCC(c2nccnc2Oc2ccc(Nc3nc4ccccc4s3)cc2)CC1` [drawing 893] stands 0.059 nM. In the case of `O=C(c1ccc(Oc2nccnc2OCCc2ccccn2)cc1)c1nc2ccccc2[nH]1` [drawing 860], the 50% inhibitory concentration (IC50) under setting [1] worked out at 8.05 nM. As to `O=C(c1ccc(Oc2nccnc2Oc2cccnc2)cc1)c1nc2ccccc2[nH]1` [Example 168, (1H-benzo[d]imidazol-2-yl)(4-(3-(pyridin-3-yloxy)pyrazin-2-yloxy)phenyl)methanone], the concentration for half-maximal inhibition (IC50) under setting [2] lay within 100 to 250 nM. `C[C@@H]1CN(c2nccnc2Oc2ccc(Nc3nc4ccccc4s3)cc2)CC(=O)N1` (racemic): the IC50 under setting [1] came out at 4.64 nM. The same measure, in the same setting: as for `FCCN1CCC(c2nccnc2Oc2ccc(Nc3nc4ccccc4s3)cc2)CC1` [drawing 962], the figure is 3.24 nM; as for `COC(=O)[C@H]1CCN(c2nccnc2Oc2ccc(C(=O)c3nc4ccccc4[nH]3)cc2)C1` [drawing 837], 4.21 nM. `CC(=O)N1CCN(c2nccnc2Oc2ccc(Nc3nc4ccccc4s3)cc2)CC1` [Example 71, 1-(4-(3-(4-(benzo[d]thiazol-2-ylamino)phenoxy)pyrazin-2-yl)piperazin-1-yl)ethanone]: the IC50 under setting [2] was 25 to 100 nM.

For the compound `CC(C)(O)C1CCN(c2nccnc2Oc2ccc(Nc3nc4ccccc4s3)cc2)CC1` [Example 66, 2-(1-(3-(4-(benzo[d]thiazol-2-ylamino)phenoxy)pyrazin-2-yl)piperidin-4-yl)propan-2-ol], under setting [2], the half-maximal inhibitory concentration (IC50) is < 25 nM. With `O=C(O)C1CN(c2nccnc2Oc2ccc(Nc3nc4ccccc4s3)cc2)C1` [Example 78, 1-(3-(4-(benzo[d]thiazol-2-ylamino)phenoxy)pyrazin-2-yl)azetidine-3-carboxylic acid], under setting [2], the IC50 was < 25 nM.

For the compound `O=C(c1ccc(Oc2nccnc2OCC(F)(F)F)cc1)c1nc2ccccc2[nH]1` [drawing 847], the IC50 under setting [1] worked out at 187 nM. In the case of `COC[C@H](C)NC(=O)c1nccnc1Oc1ccc(C(=O)c2nc3ccccc3[nH]2)cc1` [drawing 802], the IC50 under setting [1] turned out to be 45.4 nM. Same read-out and setting: as for `CC#CCOc1nccnc1Oc1ccc(C(=O)c2nc3ccccc3[nH]2)cc1` [drawing 852], the figure is 673 nM. As for `c1ccc2sc(Nc3ccc(Oc4nccnc4N4CCC5(CC4)OCCO5)cc3)nc2c1` [Example 99, N-(4-(3-(1,4-dioxa-8-azaspiro[4.5]-decan-8-yl)pyrazin-2-yloxy)phenyl)-benzo[d]thiazol-2-amine], under setting [2], the IC50 was 25 to 100 nM.

With `COc1ncccc1-c1nccnc1Oc1ccc(Nc2nc3ccccc3s2)c(F)c1` [Example 157, N-(2-fluoro-4-(3-(2-methoxypyridin-3-yl)pyrazin-2-yloxy)phenyl)benzo[d]thiazol-2-amine], the IC50 under setting [2] was in the range of 25 to 100 nM.

For the compound `FCCN1CCC(c2nccnc2Oc2ccc(Nc3nc4ccccc4s3)cc2)CC1` [Example 236, N-(4-(3-(1-(2-fluoroethyl)piperidin-4-yl)pyrazin-2-yloxy)phenyl)benzo [d]thiazol-2-amine], the IC50 under setting [2] was < 25 nM. On to `O=C(c1ccc(Oc2nccnc2C2=CC[C@@H](O)CC2)cc1)c1nc2ccccc2[nH]1` (racemic), for which the IC50 under setting [1] was 1.69 nM. Take `COC[C@@H]1CCCN1c1nccnc1Oc1ccc(C(=O)c2nc3ccccc3[nH]2)cc1`: the concentration for half-maximal inhibition (IC50) under setting [1] was found to be 1.37 nM. With `CN(C)CCOc1nccnc1Oc1ccc(C(=O)c2nc3ccccc3[nH]2)cc1` [drawing 857], under setting [1], the half-inhibitory concentration (IC50) was 486 nM.

For `O=C(c1ccc(Oc2nccnc2[C@H]2CCC[C@H](O)C2)cc1)c1nc2ccccc2[nH]1` (racemic) [Example 190, (rac)-trans-(1H-benzo[d]imidazol-2-yl)(4-(3-(3-hydroxycyclohexyl)pyrazin-2-yloxy)phenyl)methanone], the half-inhibitory concentration (IC50) under setting [2] is < 25 nM. Take `CC(=O)N1CCC(c2nccnc2Oc2ccc(C(O)c3nc4ccccc4[nH]3)cc2)CC1` (stereo not shown) [Example 228, 1-(4-(3-(4-((1H-benzo[d]imidazol-2-yl)(hydroxy)methyl)phenoxy)pyrazin-2-yl)piperidin-1-yl)ethanone]: the IC50 under setting [2] is < 25 nM. For `CC(=O)OCC(=O)N1CCC(c2nccnc2Oc2ccc(C(=O)c3nc4ccccc4[nH]3)cc2)CC1` [Example 244, 2-(4-(3-(4-(1H-benzo[d]imidazole-2-carbonyl)phenoxy)pyrazin-2-yl)piperidin-1-yl)-2-oxoethyl acetate], the concentration for half-maximal inhibition (IC50) under setting [2] is < 25 nM. For the compound `Fc1cc(-c2nccnc2Oc2ccc(Nc3nc4ccccc4s3)c(F)c2)ccn1` [drawing 974], the IC50 under setting [1] stood at 63.1 nM. `COC1CCN(c2nccnc2Oc2ccc(Nc3nc4ccccc4s3)cc2)CC1` [drawing 767]: the half-inhibitory concentration (IC50) under setting [1] was found to be 37 nM. In the case of `O=C(c1ccc(Oc2nccnc2[C@H]2CCC[C@@H](O)C2)cc1)c1nc2ccccc2[nH]1` (racemic) [Example 189, (rac)-cis-(1H-benzo[d]imidazol-2-yl)(4-(3-(3-hydroxycyclohexyl)pyrazin-2-yloxy)phenyl)methanone], the concentration for half-maximal inhibition (IC50) under setting [2] was < 25 nM. On to `COc1ncccc1-c1nccnc1Oc1ccc(Nc2nc3cccc(F)c3s2)cc1` [Example 151, 7-fluoro-N-(4-(3-(2-methoxypyridin-3-yl)pyrazin-2-yloxy)phenyl)benzo[d]thiazol-2-amine], for which the IC50 under setting [2] lay in the range of 25 to 100 nM.

As to `O[C@H]1CCC[C@@H](c2nccnc2Oc2ccc(Nc3nc4ccccc4s3)cc2)C1` [drawing 903], the half-inhibitory concentration (IC50) under setting [1] is 1.33 nM. For `O=C(c1ccc(Oc2nccnc2Cl)cc1)c1nc2ccc(F)cc2[nH]1` [Example 4, [4-(3-CHLORO-PYRAZIN-2-YLOXY)-PHENYL]-(6-FLUORO-1H-BENZOIMIDAZOL-2-YL)-METHANONE], the IC50 under setting [2] was in the range of 1000 to 5000 nM. Take `COc1cncc(-c2nccnc2Oc2ccc(C(=O)c3nc4ccccc4[nH]3)cc2)c1` [Example 118, (1H-benzo[d]imidazol-2-yl)(4-(3-(5-methoxypyridin-3-yl)pyrazin-2-yloxy)phenyl)methanone]: the IC50 under setting [2] was < 25 nM.

On to `O=C(c1ccc(Oc2nccnc2C2=CCC(F)(F)CC2)cc1)c1nc2ccccc2[nH]1` [drawing 862], for which the half-maximal inhibitory concentration (IC50) under setting [1] is 14.2 nM.

As to `O=C(c1ccc(Oc2nccnc2[C@@H]2CCC[C@@H](O)C2)cc1)c1nc2ccccc2[nH]1` (stereo in doubt) [drawing 898], the 50% inhibitory concentration (IC50) under setting [1] turned out to be 1.25 nM. Consider `O=C(c1ccc(Oc2nccnc2OCC2CCOC2)cc1)c1nc2ccccc2[nH]1` (stereo not shown) [drawing 854], for which, under setting [1], the IC50 was 5.56 nM.
